Measurements published in US5919793A, “Heterocyclic derivatives” (Zeneca Limited, priority 1993, dated 1999).

Tests used:
[1] = test system: squalene synthase (rat liver microsomal protein); assay: Inhibition of Squalene synthase (formation of squalene from tritiated farnesyl pyrophosphate); assay type: biochemical; settings: at 2.5 μM
Description: (a) Inhibition of Squalene synthase
In this test, the ability of a compound to prevent the formation of squalene from a radioactive substrate (tritiated farnesyl pyrophosphate) is assessed.
The test compound is incubated at a concentration of 25 micromolar in 200 μl of a buffered solution containing potassium phosphate (50 mM), MgCl2 (4.95 mM), KF (9.9 mM), NADPH (0.9 mM) and rat liver microsomal protein (20 μg). Rat liver microsomes are prepared by the method described in published European Patent Application No. 324,421 and stored in liquid nitrogen prior to assay. Assay vials are kept at 37° C. throughout the incubation.
The reaction is started with the addition of the substrate (1-[^3 H]-farnesyl pyrophosphate), final concentration 20 μM, and stopped after 15 minutes reaction time with the addition of 50 μl of 4% KOH. The reaction products are separated from unreacted substrate after application to a C-18 octadecyl 1 ccBond column (Analytichem Int product No. 617101). An aqueous fraction is eluted with 250 μl of 0.1M KOH. Squalene is then eluted with 1.0 ml 10% ethylacetate in hexane and radioactivity determined. The difference in radioactivity in the presence and absence of the test compound is used to determine the level of inhibition. […] The IC50 can then be determined from a plot of percentage inhibition against concentration of test compound.

[2] = test system: de novo hepatic cholesterol synthesis from 14C-acetate; assay: Acute rat cholesterol synthesis assay; assay type: in vivo; settings: inhibition of cholesterol synthesis
Description: (b) Acute rat cholesterol synthesis assay.
This is an acute in vivo test in the rat to measure de novo hepatic cholesterol synthesis from exogenously administered ^14 C-acetate.
Female rats (35-55 g) are housed in reverse lighting conditions (red light from 0200 h-1400 h) for a period of about 2 weeks prior to test. Animals are allowed free access to chow and drinking water throughout this period. At test, animals should weigh 125-150 g.
Test compounds may be administered by oral gavage, dissolved or suspended in 0.5% polysorbate, or by ip or iv dosing. Control animals receive vehicle alone. After 1 hour the rats are injected ip with 25 μCi [2-^14 C]-acetate (NEN DUPONT. specific activity, 45-60 mCi/mmol NEC-085H, or AHERSHAM specific activity, 50-60 mCi/mmol CFA 14) in a volume of 0.25 ml saline (100 μCi/ml). After a further hour, rats are terminally anaesthetised with halothane and a blood sample obtained from the abdominal vena cava.
1 ml of plasma is lyophilised and then saponified in 2 ml ethanolic KOH (1 part 33% KOH, 9 parts ethanol) at 75° C. for 2 hours. After addition of an equal quantity of water, non-saponifiable lipids are extracted with two 5 ml volumes of hexane. The hexane extracts are evaporated to dryness and the residues dissolved in ethanol to determine cholesterol specific radioactivity. ED50 values can be determined in the standard way.

In the case of `COCCOc1cc(C)c(C#CC2(O)CN3CCC2CC3)c(C)c1` (centres unmarked) [Example 16], the “inhibition of squalene synthase” value [1] is reported as “about 80%” and the ED50 [2] is reported as about 5.1 mg/kg.
